Data from patent US7488740B2, “Substituted quinolin-4-ylamine analogues” (Neurogen Corporation, priority 2003, dated 2009).

Molecular target: T1, human capsaicin receptor (Homo sapiens, UniProt Q8NER1)
T1 construct: A cDNA encoding full length human capsaicin receptor recited in U.S. Pat. No. 6,482,611 was subcloned in the plasmid pBK-CMV; expressed in transfected cells
Assay: Calcium mobilization assay (Example 6)
Type: cell-based
Conditions: concentration required to provide a 50% decrease in the fluorescence response of cells exposed to one IC50 of capsaicin
How it was run: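 HEK293 clonal lines stably expressing full-length human capsaicin receptor, Fluo-3 AM loaded in KRH buffer pH 7.4. Compounds (final 1-5 μM) preincubated 0.5-6 h at room temperature in the dark, then capsaicin added at its predetermined IC50 concentration. FLIPR calcium signal at 30-60 s; IC50 = antagonist concentration giving 50% decrease.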

T1 sequence (Q8NER1 whole entry): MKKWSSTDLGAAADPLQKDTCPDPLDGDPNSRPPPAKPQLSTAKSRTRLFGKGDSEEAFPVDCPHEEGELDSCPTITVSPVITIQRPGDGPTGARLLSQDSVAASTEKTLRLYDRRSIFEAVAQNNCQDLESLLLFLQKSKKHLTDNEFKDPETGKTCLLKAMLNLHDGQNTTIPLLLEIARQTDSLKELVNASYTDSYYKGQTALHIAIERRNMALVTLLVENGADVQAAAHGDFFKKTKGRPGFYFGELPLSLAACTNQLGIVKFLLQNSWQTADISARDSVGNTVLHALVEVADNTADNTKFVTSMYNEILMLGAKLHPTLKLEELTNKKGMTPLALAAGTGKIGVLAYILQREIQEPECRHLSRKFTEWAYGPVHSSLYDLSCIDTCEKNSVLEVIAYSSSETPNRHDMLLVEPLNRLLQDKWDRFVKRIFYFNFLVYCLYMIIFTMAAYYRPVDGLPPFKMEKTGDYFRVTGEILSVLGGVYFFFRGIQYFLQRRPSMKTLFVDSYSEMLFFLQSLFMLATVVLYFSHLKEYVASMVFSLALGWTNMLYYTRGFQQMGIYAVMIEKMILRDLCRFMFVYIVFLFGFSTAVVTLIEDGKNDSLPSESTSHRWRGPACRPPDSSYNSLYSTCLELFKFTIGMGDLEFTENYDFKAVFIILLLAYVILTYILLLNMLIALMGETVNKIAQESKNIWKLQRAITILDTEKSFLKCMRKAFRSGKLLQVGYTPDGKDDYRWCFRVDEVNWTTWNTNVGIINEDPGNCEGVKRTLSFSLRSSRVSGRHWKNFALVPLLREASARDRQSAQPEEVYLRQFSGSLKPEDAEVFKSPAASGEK

Compound	IC50 [nM]
CCN(CCCO)Cc1cc(Nc2ccc(C(F)(F)F)cc2)c2ccc(-c3ncccc3C(F)(F)F)nc2n1 [Compound 77, 3-[ethyl({4-{[4-(trifluoromethyl)phenyl]amino}-7-[3-(trifluoromethyl)pyridin-2-yl]-1,8-naphthyridin-2-yl}methyl)amino]propan-1-ol]	≤ 1000
CC(C)N(CCCO)Cc1cc(Nc2ccc(C(F)(F)F)cc2)c2ccc(-c3ncccc3C(F)(F)F)nc2n1 [Compound 78, 3-[isopropyl({4-{[4-(trifluoromethyl)phenyl]amino}-7-[3-(trifluoromethyl)pyridin-2-yl]-1,8-naphthyridin-2-yl}methyl)amino]propan-1-ol]	≤ 1000
CCCN(CCCO)Cc1cc(Nc2ccc(C(F)(F)F)cc2)c2ccc(-c3ncccc3C(F)(F)F)nc2n1 [Compound 79]	≤ 1000
CC(C)CN(Cc1cc(Nc2ccc(C(F)(F)F)cc2)c2ccc(-c3ncccc3C(F)(F)F)nc2n1)S(C)(=O)=O [Compound 80, N-isobutyl-N-({4-{[4-(trifluoromethyl)phenyl]amino}-7-[3-(trifluoromethyl)pyridin-2-yl]-1,8-naphthyridin-2-yl}methyl)methanesulfonamide]	≤ 1000
CC(C)CN(CC(=O)O)Cc1cc(Nc2ccc(C(F)(F)F)cc2)c2ccc(-c3ncccc3C(F)(F)F)nc2n1 [Compound 81, N-isobutyl-N-({4-{[4-(trifluoromethyl)phenyl]amino}-7-[3-(trifluoromethyl)pyridin-2-yl]-1,8-naphthyridin-2-yl}methyl)glycine]	≤ 1000
CC(C)(O)COCc1cc(Nc2ccc(C(F)(F)F)cc2)c2ccc(-c3ncccc3C(F)(F)F)nc2n1 [Compound 82, 2-methyl-1-({4-{[4-(trifluoromethyl)phenyl]amino}-7-[3-(trifluoromethyl)pyridin-2-yl]-1,8-naphthyridin-2-yl}methoxy)propan-2-ol]	≤ 1000
Cc1ccc(Nc2cc(COCC(C)C)nc3nc(-c4ncccc4C(F)(F)F)ccc23)nc1 [Compound 83, 2-(isobutoxymethyl)-N-(5-methylpyridin-2-yl)-7-[3-(trifluoromethyl)pyridin-2-yl]-1,8-naphthyridin-4-amine]	≤ 1000
CC(C)COCc1cc(Nc2ccccn2)c2ccc(-c3ncccc3C(F)(F)F)nc2n1 [Compound 84, 2-(isobutoxymethyl)-N-pyridin-2-yl-7-[3-(trifluoromethyl)pyridin-2-yl]-1,8-naphthyridin-4-amine]	≤ 1000
CC(C)COCc1cc(Nc2ccc(C(C)(C)O)cn2)c2ccc(-c3ncccc3C(F)(F)F)nc2n1 [Compound 85, 2-[6-({2-(isobutoxymethyl)-7-[3-(trifluoromethyl)pyridin-2-yl]-1,8-naphthyridin-4-yl}amino)pyridin-3-yl]propan-2-ol]	≤ 1000
C[C@@H](OCc1cc(Nc2ccc(C(F)(F)F)cc2)c2ccc(-c3ncccc3C(F)(F)F)nc2n1)C(C)(C)O [Compound 86, 2-methyl-3-({4-{[4-(trifluoromethyl)phenyl]amino}-7-[3-(trifluoromethyl)pyridin-2-yl]-1,8-naphthyridin-2-yl}methoxy)butan-2-ol]	≤ 1000
CC(C)COCc1cc(Nc2ccc(C#N)cn2)c2ccc(-c3ncccc3C(F)(F)F)nc2n1 [Compound 87, 6-({2-(isobutoxymethyl)-7-[3-(trifluoromethyl)pyridin-2-yl]-1,8-naphthyridin-4-yl}amino)nicotinonitrile]	≤ 1000
OCc1cc(Nc2ccc(C(F)(F)F)cn2)c2ccc(-c3ncccc3C(F)(F)F)nc2n1 [Compound 88, (7-[3-(trifluoromethyl)pyridin-2-yl]-4-{[5-(trifluoromethyl)pyridin-2-yl]amino}-1,8-naphthyridin-2-yl)methanol]	≤ 1000
CN(C)Cc1cc(Nc2ccc(C(F)(F)F)cn2)c2ccc(-c3ncccc3C(F)(F)F)nc2n1 [Compound 89, 2-[(dimethylamino)methyl]-7-[3-(trifluoromethyl)pyridin-2-yl]-N-[5-(trifluoromethyl)pyridin-2-yl]-1,8-naphthyridin-4-amine]	≤ 1000
C[C@@H]1CN(Cc2cc(Nc3ccc(C(F)(F)F)cn3)c3ccc(-c4ncccc4C(F)(F)F)nc3n2)C[C@H](C)O1 [Compound 90, rel-2-{[(2R,6S)-2,6-dimethylmorpholin-4-yl]methyl}-7-[3-(trifluoromethyl)pyridin-2-yl]-N-[5(trifluoromethyl)pyridin-2-yl]-1,8-naphthyridin-4-amine]	≤ 1000
FC(F)(F)c1ccc(Nc2cc(CN3CCOCC3)nc3nc(-c4ncccc4C(F)(F)F)ccc23)nc1 [Compound 91, 2-(morpholin-4-ylmethyl)-7-[3-(trifluoromethyl)pyridin-2-yl]-N-[5-(trifluoromethyl)pyridin-2-yl]-1,8-naphthyridin-4-amine]	≤ 1000
FC(F)(F)c1ccc(Nc2cc(CN3CCCCC3)nc3nc(-c4ncccc4C(F)(F)F)ccc23)nc1 [Compound 92, 2-(piperidin-1-ylmethyl)-7-[3-(trifluoromethyl)pyridin-2-yl]-N-[5-(trifluoromethyl)pyridin-2-yl]-1,8-naphthyridin-4-amine]	≤ 1000
CC1CCCN1Cc1cc(Nc2ccc(C(F)(F)F)cn2)c2ccc(-c3ncccc3C(F)(F)F)nc2n1 (centres unmarked) [Compound 93, 2-[(2-methylpyrrolidin-1-yl)methyl]-7-[3-(trifluoromethyl)pyridin-2-yl]-N-[5-(trifluoromethyl)pyridin-2-yl]-1,8-naphthyridin-4-amine]	≤ 1000
CCN(CC)Cc1cc(Nc2ccc(C(F)(F)F)cn2)c2ccc(-c3ncccc3C(F)(F)F)nc2n1 [Compound 94, 2-[(diethylamino)methyl]-7-[3-(trifluoromethyl)pyridin-2-yl]-N-[5-(trifluoromethyl)pyridin-2-yl]-1,8-naphthyridin-4-amine]	≤ 1000
FC(F)(F)c1ccc(Nc2cc(CN3CCCC3)nc3nc(-c4ncccc4C(F)(F)F)ccc23)nc1 [Compound 95, 2-(pyrolidin-1-ylmethyl)-7-[3-(trifluoromethyl)pyridin-2-yl]-N-[5-(trifluoromethyl)pyridin-2-yl]-1,8-naphthyridin-4-amine]	≤ 1000
COc1cc(Nc2ccc(C(F)(F)F)cn2)c2ccc(-c3ncccc3C(F)(F)F)nc2n1 [Compound 96, 2-methoxy-7-[3-(trifluoromethyl)pyridin-2-yl]-N-[5-(trifluoromethyl)pyridin-2-yl]-1,8-naphthyridin-4-amine]	≤ 1000
Oc1cc(Nc2ccc(C(F)(F)F)cn2)c2ccc(-c3ncccc3C(F)(F)F)nc2n1 [Compound 97, 7-[3-(trifluoromethyl)pyridin-2-yl]-4-{[5-(trifluoromethyl)pyridin-2-yl]amino}-1,8-naphthyridin-2-ol]	≤ 1000
FC(F)(F)c1ccc(Nc2cc(C3CCC3)nc3nc(-c4ncccc4C(F)(F)F)ccc23)nc1 [Compound 98, 2-cyclobutyl-7-[3-(trifluoromethyl)pyridin-2-yl]-N-[5-(trifluoromethyl)pyridin-2-yl]-1,8-naphthyridin-4-amine]	≤ 1000
Cc1ccc(Nc2cc(C3CCC3)nc3nc(-c4ncccc4C(F)(F)F)ccc23)nc1 [Compound 99, 2-cyclobutyl-N-(5-methylpyridin-2-yl)-7-[3-(trifluoromethyl)pyridin-2-yl]-1,8-naphthyridin-4-amine]	≤ 1000
